Biological target: T1, full length human recombinant glucocorticoid receptor (Homo sapiens, UniProt P04150)
T1 construct: It contains some partially purified full length human recombinant glucocorticoid receptor; purchased Panvera/Invitrogen PV4302
T1 sequence (P04150 1-777): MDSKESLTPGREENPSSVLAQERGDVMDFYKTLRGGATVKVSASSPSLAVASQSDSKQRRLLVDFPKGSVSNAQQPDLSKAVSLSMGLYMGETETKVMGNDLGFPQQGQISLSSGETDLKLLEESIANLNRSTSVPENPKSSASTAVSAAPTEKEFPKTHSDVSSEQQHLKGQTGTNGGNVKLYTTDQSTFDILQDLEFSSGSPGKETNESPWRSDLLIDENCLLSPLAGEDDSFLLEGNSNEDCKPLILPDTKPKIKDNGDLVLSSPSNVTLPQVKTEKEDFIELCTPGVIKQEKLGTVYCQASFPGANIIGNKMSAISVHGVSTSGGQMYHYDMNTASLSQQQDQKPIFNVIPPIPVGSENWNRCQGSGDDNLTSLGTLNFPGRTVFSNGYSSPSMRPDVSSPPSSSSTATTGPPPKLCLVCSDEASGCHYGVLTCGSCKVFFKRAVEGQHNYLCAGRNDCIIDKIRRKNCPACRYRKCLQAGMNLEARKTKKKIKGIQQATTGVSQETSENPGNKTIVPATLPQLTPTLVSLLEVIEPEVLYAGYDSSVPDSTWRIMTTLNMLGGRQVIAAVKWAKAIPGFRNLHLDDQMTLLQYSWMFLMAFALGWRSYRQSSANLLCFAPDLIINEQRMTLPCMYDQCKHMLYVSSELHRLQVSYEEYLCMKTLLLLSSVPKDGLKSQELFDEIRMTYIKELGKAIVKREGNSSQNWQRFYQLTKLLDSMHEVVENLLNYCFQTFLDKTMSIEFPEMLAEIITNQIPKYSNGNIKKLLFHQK
Experiment: Glucocorticoid Receptor Binding Assay (Glucocorticoid Receptor Competitor Assay far red kit, fluorescence polarization)
Conditions: competition with fluorescent GR ligand Fluormone GS Far Red, 3 hours at 22° C., pH 7.4; Ki calculated from IC50 by Cheng-Prusoff
Procedure, shortened: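 Fluorescence polarization competition with partially purified full-length human recombinant GR, stabilizing peptide and Fluormone GS Far Red tracer in screening buffer pH 7.4; 3 hours at 22° C in the dark, read at 610–660 nm. IC50 from sigmoidal fit; Ki by Cheng-Prusoff.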

Ki | SMILES
2.1 nM | COC(=O)c1ccc(Oc2ccc([C@@H](C)[C@@](O)(c3ccc4oc(=O)n(C)c4c3)C(F)(F)F)c(Cl)c2)nn1 (relative stereo) [Example 199, 6-{3-Chloro-4-[3,3,3-trifluoro-2-hydroxy-1-methyl-2-(3-methyl-2-oxo-2,3-dihydro-benzooxazol-5-yl)-propyl]-phenoxy}-pyridazine-3-carboxylic acid methyl ester]
3.9 nM | C[C@H](c1ccc(Oc2ccc(C(=O)O)nn2)cc1Cl)[C@@](O)(c1ccc2oc(=O)n(C)c2c1)C(F)(F)F (relative stereo) [Example 201, 6-{3-Chloro-4-[3,3,3-trifluoro-2-hydroxy-1-methyl-2-(3-methyl-2-oxo-2,3-dihydro-benzooxazol-5-yl)-propyl]-phenoxy}-pyridazine-3-carboxylic acid]
1.8 nM | COC(=O)c1cnc(Oc2ccc([C@@H](C)[C@@](O)(c3ccc4oc(=O)n(C)c4c3)C(F)(F)F)c(Cl)c2)nc1 (relative stereo) [Example 202, 2-{3-Chloro-4-[3,3,3-trifluoro-2-hydroxy-1-methyl-2-(3-methyl-2-oxo-2,3-dihydro-benzooxazol-5-yl)-propyl]-phenoxy}-pyrimidine-5-carboxylic acid methyl ester]
1.8 nM | C[C@H](c1ccc(Oc2ncc(C(=O)O)cn2)cc1Cl)[C@@](O)(c1ccc2oc(=O)n(C)c2c1)C(F)(F)F (relative stereo) [Example 203, 2-{3-Chloro-4-[3,3,3-trifluoro-2-hydroxy-1-methyl-2-(3-methyl-2-oxo-2,3-dihydro-benzooxazol-5-yl)-propyl]-phenoxy}-pyrimidine-5-carboxylic acid]
60.2 nM | COC(=O)c1ccc(Oc2ccc([C@@H](C)[C@@](O)(c3ccc4c(c3)N(C)C(=O)CO4)C(F)(F)F)c(Cl)c2)cc1Cl (single isomer, unassigned) [Example 216]
1 nM | COC(=O)c1ccc(Oc2ccc([C@H](C)[C@](O)(c3ccc4c(c3)N(C)C(=O)CO4)C(F)(F)F)c(Cl)c2)cc1Cl (single isomer, unassigned) [Example 217]
1.6 nM | COC(=O)c1cnc(Oc2ccc([C@H](C)[C@](O)(c3ccc4c(c3)N(C)C(=O)CO4)C(F)(F)F)c(Cl)c2)c(Cl)c1 (single isomer, unassigned) [Example 222]
9.7 nM | CCOC(=O)c1ccc(COc2ccc(Cl)c([C@H](C)[C@](O)(c3ccc4c(c3)N(C)C(=O)CO4)C(F)(F)F)c2)cc1 (stereo in doubt) [Example 1, 4-{4-Chloro-3-[3,3,3-trifluoro-2-hydroxy-1-methyl-2-(4-methyl-3-oxo-3,4-dihydro-2H-benzo[1,4]oxazin-6-yl)-propyl]-phenoxymethyl}-benzoic acid ethyl ester]
9.2 nM | CCOC(=O)COc1ccc(Cl)c([C@H](C)[C@](O)(c2ccc3c(c2)N(C)C(=O)CO3)C(F)(F)F)c1 (stereo in doubt) [Example 3, {4-Chloro-3-[3,3,3-trifluoro-2-hydroxy-1-methyl-2-(4-methyl-3-oxo-3,4-dihydro-2H-benzo[1,4]oxazin-6-yl)-propyl]-phenoxy}-acetic acid ethyl ester]
4.8 nM | C[C@@H](c1cc(Oc2cccc(C(=O)O)c2)ccc1Cl)[C@](O)(c1ccc2c(c1)N(C)C(=O)CO2)C(F)(F)F (stereo in doubt) [Example 6, 3-{4-Chloro-3-[3,3,3-trifluoro-2-hydroxy-1-methyl-2-(4-methyl-3-oxo-3,4-dihydro-2H-benzo[1,4]oxazin-6-yl)-propyl]-phenoxy}-benzoic acid]
2.9 nM | C[C@@H](c1ccc(-c2ccc(C(=O)O)cc2)cc1Cl)[C@](O)(c1ccc2c(c1)N(C)C(=O)CO2)C(F)(F)F (stereo in doubt) [Example 22, 3′-Chloro-4′-[3,3,3-trifluoro-2-hydroxy-1-methyl-2-(4-methyl-3-oxo-3,4-dihydro-2H-benzo[1,4]oxazin-6-yl)-propyl]-biphenyl-4-carboxylic acid]
1.3 nM | C[C@@H](c1ccc(-c2cccc(C(=O)O)c2)cc1Cl)[C@](O)(c1ccc2c(c1)N(C)C(=O)CO2)C(F)(F)F (stereo in doubt) [Example 23, 3′-Chloro-4′-[3,3,3-trifluoro-2-hydroxy-1-methyl-2-(4-methyl-3-oxo-3,4-dihydro-2H-benzo[1,4]oxazin-6-yl)-propyl]-biphenyl-3-carboxylic acid]
7.8 nM | C[C@@H](c1ccc(-c2ccc(C(=O)O)cc2F)cc1Cl)[C@](O)(c1ccc2c(c1)N(C)C(=O)CO2)C(F)(F)F (stereo in doubt) [Example 34, 3′-Chloro-2-fluoro-4′-[3,3,3-trifluoro-2-hydroxy-1-methyl-2-(4-methyl-3-oxo-3,4-dihydro-2H-benzo[1,4]oxazin-6-yl)-propyl]-biphenyl-4-carboxylic acid]
1.5 nM | C[C@@H](c1ccc(-c2ccc(Cl)c(C(=O)O)c2)cc1Cl)[C@](O)(c1ccc2c(c1)N(C)C(=O)CO2)C(F)(F)F (stereo in doubt) [Example 40, 4,3′-Dichloro-4′-[3,3,3-trifluoro-2-hydroxy-1-methyl-2-(4-methyl-3-oxo-3,4-dihydro-2H-benzo[1,4]oxazin-6-yl)-propyl]-biphenyl-3-carboxylic acid]
4 nM | CCOC(=O)C1CCN(c2ccc([C@H](C)[C@](O)(c3ccc4c(c3)N(C)C(=O)CO4)C(F)(F)F)c(Cl)c2)CC1 (stereo in doubt) [Example 42, 1-{3-Chloro-4-[3,3,3-trifluoro-2-hydroxy-1-methyl-2-(4-methyl-3-oxo-3,4-dihydro-2H-benzo[1,4]oxazin-6-yl)-propyl]-phenyl}-piperidine-4-carboxylic acid ethyl ester]
1.3 nM | C[C@@H](c1ccc(-c2ccc(F)c(OCC(=O)O)c2)cc1Cl)[C@](O)(c1cc(F)c2c(c1)N(C)C(=O)CO2)C(F)(F)F (stereo in doubt) [Example 48, {3′-Chloro-4-fluoro-4′-[3,3,3-trifluoro-2-(8-fluoro-4-methyl-3-oxo-3,4-dihydro-2H-benzo[1,4]oxazin-6-yl)-2-hydroxy-1-methyl-propyl]-biphenyl-3-yloxy}-acetic acid]
16 nM | COC(=O)c1ccc(-c2ccc([C@H](C)[C@](O)(c3ccc(=O)n4ccccc34)C(F)(F)F)c(Cl)c2)cc1F (stereo in doubt) [Example 49, 3′-Chloro-3-fluoro-4′-[3,3,3-trifluoro-2-hydroxy-1-methyl-2-(4-oxo-4H-quinolizin-1-yl)-propyl]-biphenyl-4-carboxylic acid methyl ester]
48.7 nM | C[C@@H](c1ccc(-c2ccc(C(=O)O)c(F)c2)cc1Cl)[C@](O)(c1ccc(=O)n2ccccc12)C(F)(F)F (stereo in doubt) [Example 50, 3′-Chloro-3-fluoro-4′-[3,3,3-trifluoro-2-hydroxy-1-methyl-2-(4-oxo-4H-quinolizin-1-yl)-propyl]-biphenyl-4-carboxylic acid]
20.8 nM | COC(=O)c1ccc(-c2ccc([C@@H](C)[C@@](O)(c3cnc4c(c3)N(C)C(=O)CO4)C(F)(F)F)c(Cl)c2)cc1F (stereo in doubt) [Example 51, 3′-Chloro-3-fluoro-4′-[3,3,3-trifluoro-2-hydroxy-1-methyl-2-(1-methyl-2-oxo-2,3-dihydro-1H-pyrido[2,3-b][1,4]oxazin-7-yl)-propyl]-biphenyl-4-carboxylic acid methyl ester]

Source: US8450313B2, “2,3-diaryl- or heteroaryl-substituted 1,1,1-trifluoro-2-hydroxypropyl compounds” (Hoffmann-La Roche Inc., priority 2009, dated 2013)
